Experimental findings from patent US6017958A, “Method of treating malignant tumors with thyroxine analogues having no significant hormonal activity” (Octamer, Inc., priority 1997, dated 2000) are described below.

The subject of data set [1] is protein phosphatase 2A. The experiment in a line: Activation of purified protein phosphatase 2A (32P-histone H1 dephosphorylation). The settings on record: 50 μM, 10 min preincubation. It is filed as biochemical. The protocol:
2.1 Preparation of ^32 P-labeled Histone H1 Substrate
Histone H1 was phosphorylated with protein kinase C (Upstate Biotechnology,Inc., Lake Placid, N.Y.) in a volume of 100 μL according to standard protocols. Alternatively, histone H1 was phosphorylated with p34cdc2 kinase purified from rapidly multiplying Mytilus Edulis embryos at 4-8 stage after isolation with the p^13 -Suc agarose technique (Smythe and Newport, 1992, "Coupling of Mitosis to the Completion of S Phase in Xenopus Occurs via Modulation of the Tyrosine Kinase that Phosphorylates p34cdc2," Cell 68:787-797).
125 ng purified protein phosphatase 2A (Upstate Biotechnology, Inc., Lake Placid, N.Y.; Usui et al., 1983, J. Biol. Chem. 258:10455-10463) was preincubated with thyroxine analogue (50 μM) in buffer (20 mM MOPS or Tris, pH 7.5, 1 mM MgCl2, 60 μM β-mercaptoethanol) for 10 min. at 23° C. Total reaction volume was 20 μL. ^32 P-labeled histone H1 substrate (10 μg, 10^5 cpm) was added and the dephosphorylation reaction allowed to proceed for 5 min. at 23° C., after which time the reaction was quenched by addition of 2 μL Laeimli buffer. An identical reaction containing 125 ng untreated protein phosphatase 2A was run as a control.
Phosphorylated and dephosphorylated histone H1 were separated by gel electrophoresis (12% SDS-PAGE), bands containing phosphorylated histone H1 excised and assayed for ^32 P activity via scintillation counter.
The velocity of dephosphorylation in 5 min. is an indication of the initial velocity (Vinit) of the dephosphorylation reaction.

Data set [2] relates to DU 145 (prostate cancer). The experiment in a line: Cytocidal action/growth inhibition, DU 145. The class given is cell-based. The settings on record: Homo sapiens. The protocol: (§1) Seven human cancer cell lines were obtained from the American Tissue Culture Collection (Rockville, Md.) and maintained in the recommended growth media. Cells were seeded into wells (2 cm^2) at a density of 2×10^4 cells/cm^2. Various concentrations of Compounds 1-13 were added to the media at the time of seeding.
(§2) The cultures were incubated for 72 hours at 37° C. (5% CO2 atmosphere). Following incubation, cells were detached with trypsin and counted in a hemocytometer.
(§3) I100 designates the concentration at which no viable cells remained; I50 the concentration at which 50% viable cells remained, as compared to a control.
(§4) E-ras 20 cells were cultured as reported, Bauer et al., 1996, "Modification of growth related enzymatic pathways and apparent loss of tumorigenicity of a ras-transformed bovine endothelial cell line by treatment with 5-iodo-6-amino-1,2-benzopyrone (INH2 BP)" Intl. J. Oncol. 8:239-252; HT-144 (melanoma), DU-145 (prostatic cancer), HeLa (cervical cancer), HL 60 (promyelocytic leukemia), MDA-MB-231 (mammary cancer), SK-Br-3 (mammary cancer), T47D (ductal mammary cancer), A559 (lung cancer) were obtained from American Type Culture Collection (Rockville, Md.) and cultured in prescribed media. The effect of DIME was tested in cultures with a starting cell density of 2×10^4 cells per cm^2 and comparison of the effect of DIME on cell growth (intact cells identified by Trypan blue exclusion) was assayed by direct cell counting after trypsinization in a hemocytometer 72 hours after drug addition.
(§5) For DIME-exposure experiments cells were seeded into 2 cm^2 wells at a density of 2×10^4 cells/cm^2. DIME at various concentrations was added to the medium at the time of seeding. The cell cultures were then incubated for 3 days (37° C. in 5% at CO2 atmosphere).

The subject of data set [3] is MDA-MD-231 (mammary cancer). Kind of data set: Cytocidal action/growth inhibition, MDA-MB-231. The class given is cell-based. The settings on record: Homo sapiens. The method, then: as §1, §2, §3, §4, §5
The test system of data set [4] is DIME-esterase. Kind of data set: Esterase cleavage of DIME in tissue homogenates. The class given is in vitro ADME. The settings on record: mouse tissue homogenates. The method, then:
(a) mouse tissue homogenate (brain, kidney, liver lung) consisting of 0.2 g of tissue in 1.0 ml. of homogenization buffer (50 mM Tris (pH 7.4), 400 mM NaCl, 10 mM MgCl2, 1 mM EDTA, 0.5% NP-40, 0.5 mM PMSF) each were combined with 1.0 ml of MES buffer (100 mM ph 6.5) containing 20 μM [^14 C]-DIME (10.55 mCi/mmol), and the mixtures were incubated at 37° C. for 4 hours. Then to each tube was added sequentially ethyl acetate (1.5 ml), ammonium sulfate (900 mg) and 60% perchloric acid (160 μl), with vortexing after each addition. After standing for 10 minutes, phase separation was enhanced by benchtop centrifugation. The upper (ethyl acetate) layer was drawn off, and the lower aqueous and interphase material was extracted with a second portion of ethyl acetate (1.5 ml). The ethyl acetate extracts (combined) contained more than 90% of the total cpm present in the original incubate (ca. 4×10^5 cpm). The extracts were evaporated to dryness using a stream of N^2, the respective residues taken up in ethyl acetate (100 μl) and aliquots (10 μl) spotted on analytical silica-gel TLC plates (Whatman PE SIL G/UV flexible plates 250 μm thickness, 10 cm×20 cm) and developed with 3:1:0.8 v:v:v n-hexane/ethyl acetate/ethanol. Analyte bands, including [^14 C]-DIME as reference standard, were visualized by autoradiography. […]
radioactivity of the [^14 C]-DIME was 20,470 cpm/nmol.

In data set [5] the test system is biosynthetic pathways of DNA, RNA or proteins. Kind of data set: Metabolic action and biosynthetic pathways.

Where two headings read alike, the source gives them in different places.

On to `COC(=O)c1cc(I)c(Oc2ccc(OC)cc2)c(I)c1` [Compound 1, Methyl 3,5-diiodo-4-(4'-methoxyphenoxy)benzoate], for which, in data set [1] (control 10217 ± 1708, average of three samples), the “Activity/5 min (initial velocity of histone H1 dephosphorylation)” value turned out to be 24655 ± 8600 cpm. For the same compound, the “increase of Vinit of histone H1 dephosphorylation” value in data set [1] is reported as “more than doubles Vinit”. Further, the IC50 turned out to be 500 nM in data set [2] (DU-145, 72 h, day 3, Table 11, read-out: I50 (day 3)); 500 nM in data set [2] (DU-145, 72 h, Table 4, read-out: I50); 400 nM in data set [3] (MDA-MB-231, 72 h, day 3, Table 11, read-out: I50 (day 3)); 400 nM in data set [3] (MDA-MB-231, 72 h, Table 4, read-out: I50). In addition, the IC100 in data set [2] (DU-145, 72 h, Table 4, read-out: I100 (no viable cells remained)) was 3.5 µM; in data set [3] (MDA-MB-231, 72 h, Table 4, read-out: I100 (no viable cells remained)), 3 µM. Also, in data set [4], the “DIME-esterase activity” value was “highest rate of "DIME-esterase" activity occurred in brain homogenates”. Besides, the “inhibition of biosynthetic pathways of DNA, RNA or proteins” value in data set [5] was “nor does it inhibit the biosynthetic pathways of DNA, RNA or proteins”. Further, the metabolic action result in data set [5] was “no metabolic action”.
